The text below walks through data of publication PMC10046369, “Low-Affinity/High-Selectivity Dopamine Transport Inhibition Sufficient to Rescue Cognitive Functions in the Aging Rat” (Biomolecules, 2023).

Structures are written as SMILES.

What all share (test): cell-based
Holding throughout (parameters): functional GPCR antagonist screen (Eurofins Cerep), percent inhibition of control agonist response
Conditions in all cases: antagonist effect, against control agonist; read-out: % Inhibition of Control Agonist Response, Mean

In one assay the target is T1, EP2 (h) (Homo sapiens, UniProt P43116).
T1 construct: gene PTGER2

The target in another assay is T2, EP3 (h) (Homo sapiens, UniProt P43115).
T2 construct: gene PTGER3
T2 sequence (P43115 whole entry): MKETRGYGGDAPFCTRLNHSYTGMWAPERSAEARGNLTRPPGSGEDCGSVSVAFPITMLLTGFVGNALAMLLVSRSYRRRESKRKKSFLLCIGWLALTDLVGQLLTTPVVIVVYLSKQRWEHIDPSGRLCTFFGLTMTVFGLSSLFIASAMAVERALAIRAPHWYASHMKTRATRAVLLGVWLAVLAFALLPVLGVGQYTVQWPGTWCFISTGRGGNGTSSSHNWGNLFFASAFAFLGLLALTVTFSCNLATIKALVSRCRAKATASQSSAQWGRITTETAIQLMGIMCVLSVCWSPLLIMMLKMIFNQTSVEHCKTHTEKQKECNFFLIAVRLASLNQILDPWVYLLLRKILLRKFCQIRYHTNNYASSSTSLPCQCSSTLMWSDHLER

The target in the next assay is T3, FP (h) (Homo sapiens, UniProt P43088).
T3 construct: gene PTGFR
T3 sequence (P43088 whole entry): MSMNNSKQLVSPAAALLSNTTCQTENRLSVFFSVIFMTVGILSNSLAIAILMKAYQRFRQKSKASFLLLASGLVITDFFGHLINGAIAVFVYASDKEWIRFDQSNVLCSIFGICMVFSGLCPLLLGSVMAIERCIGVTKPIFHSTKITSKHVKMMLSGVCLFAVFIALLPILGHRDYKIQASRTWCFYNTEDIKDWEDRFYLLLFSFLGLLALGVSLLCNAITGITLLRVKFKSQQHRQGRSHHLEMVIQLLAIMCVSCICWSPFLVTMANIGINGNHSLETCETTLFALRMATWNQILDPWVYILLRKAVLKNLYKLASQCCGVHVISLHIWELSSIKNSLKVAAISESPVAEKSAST

The target of the next assay is T4, LPA1(h) (Homo sapiens, UniProt Q92633).
T4 construct: gene LPAR1
T4 sequence (Q92633 whole entry): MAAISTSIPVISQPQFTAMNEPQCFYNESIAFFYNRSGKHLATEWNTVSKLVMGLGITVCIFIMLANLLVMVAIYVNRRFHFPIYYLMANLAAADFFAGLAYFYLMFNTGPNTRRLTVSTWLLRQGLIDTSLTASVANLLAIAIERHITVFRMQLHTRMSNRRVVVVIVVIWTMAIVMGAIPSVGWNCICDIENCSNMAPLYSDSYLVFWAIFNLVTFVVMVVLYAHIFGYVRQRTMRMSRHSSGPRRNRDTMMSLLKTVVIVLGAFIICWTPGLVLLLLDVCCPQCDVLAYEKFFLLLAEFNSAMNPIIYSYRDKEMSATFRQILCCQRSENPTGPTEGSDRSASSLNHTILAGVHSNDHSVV

In a further assay the target is T5, M4 (h) (Homo sapiens, UniProt P08173).
T5 construct: gene CHRM4
T5 sequence (P08173 whole entry): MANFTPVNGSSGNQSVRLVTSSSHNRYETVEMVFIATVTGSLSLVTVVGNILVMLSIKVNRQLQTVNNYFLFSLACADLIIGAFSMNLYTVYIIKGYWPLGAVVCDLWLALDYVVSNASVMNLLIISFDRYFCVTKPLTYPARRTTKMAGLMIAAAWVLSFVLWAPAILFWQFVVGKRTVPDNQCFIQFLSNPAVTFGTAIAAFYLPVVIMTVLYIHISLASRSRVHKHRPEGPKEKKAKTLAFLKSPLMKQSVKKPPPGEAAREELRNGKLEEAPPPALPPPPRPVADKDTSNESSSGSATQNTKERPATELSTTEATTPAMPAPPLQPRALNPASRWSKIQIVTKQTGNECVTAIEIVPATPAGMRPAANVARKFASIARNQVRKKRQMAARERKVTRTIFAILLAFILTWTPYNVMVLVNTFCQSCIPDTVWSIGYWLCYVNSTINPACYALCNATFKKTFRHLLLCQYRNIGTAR

A further assay concerns the target T6, M5 (h) (Homo sapiens, UniProt P08912).
T6 construct: gene CHRM5

The next assay has as its target T7, MC2 (h) (Homo sapiens, UniProt Q01718).
T7 construct: gene MC2R

In the next assay the target is T8, MC3 (h) (Homo sapiens, UniProt P41968).
T8 construct: gene MC3R
T8 sequence (P41968 whole entry): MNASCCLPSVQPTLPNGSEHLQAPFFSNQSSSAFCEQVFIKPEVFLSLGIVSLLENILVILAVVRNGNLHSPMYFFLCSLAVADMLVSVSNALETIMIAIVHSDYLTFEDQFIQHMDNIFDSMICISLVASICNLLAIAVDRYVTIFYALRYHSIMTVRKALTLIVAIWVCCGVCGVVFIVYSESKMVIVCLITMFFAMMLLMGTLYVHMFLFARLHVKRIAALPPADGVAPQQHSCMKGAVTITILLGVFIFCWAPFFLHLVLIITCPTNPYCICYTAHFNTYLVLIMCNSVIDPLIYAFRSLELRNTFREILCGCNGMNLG

The target in the next assay is MRGX1 / MRGPRX1 (h) (Homo sapiens, UniProt Q96LB2).
Sequence of MRGX1 / MRGPRX1 (h) (Q96LB2 whole entry): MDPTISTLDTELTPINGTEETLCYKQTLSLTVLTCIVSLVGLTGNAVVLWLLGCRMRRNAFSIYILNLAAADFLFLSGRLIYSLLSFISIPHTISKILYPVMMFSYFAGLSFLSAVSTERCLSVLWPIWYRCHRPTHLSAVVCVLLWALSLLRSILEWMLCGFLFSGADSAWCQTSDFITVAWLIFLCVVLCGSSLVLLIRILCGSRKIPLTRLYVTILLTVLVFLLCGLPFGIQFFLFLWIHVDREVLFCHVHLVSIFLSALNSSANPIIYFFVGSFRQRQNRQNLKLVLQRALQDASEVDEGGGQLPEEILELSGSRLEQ
Another assay addresses T9, MT1 (ML1A) (h) (Homo sapiens, UniProt P48039).
T9 construct: gene MTNR1A

The next assay deals with T10, MT2 (ML1B) (h) (Homo sapiens, UniProt P49286).
T10 construct: gene MTNR1B

Another assay addresses T11, NK1 (h) (Homo sapiens, UniProt P25103).
T11 construct: gene TACR1

The target of a further assay is T12, NK2 (h) (Homo sapiens, UniProt P21452).
T12 construct: gene TACR2

The next assay has as its target T13, NMU2 (h) (Homo sapiens, UniProt Q9GZQ4).
T13 construct: gene NMUR2

Another assay has as its target T14, NOP (h) (ORL1) (Homo sapiens, UniProt P41146).
T14 construct: gene OPRL1

The target in the next assay is T15, NTS2 (NT2) (h) (Homo sapiens, UniProt O95665).
T15 construct: gene NTSR2

A further assay addresses T16, P2Y1 (h) (Homo sapiens, UniProt P47900).
T16 construct: gene P2RY1

The next assay concerns the target T17, PAR2 (h) (Homo sapiens, UniProt P55085).
T17 construct: gene F2RL1

The target in a further assay is T18, PK1 (h) (Homo sapiens, UniProt Q8TCW9).
T18 construct: gene PROKR1

The target of a further assay is T19, S1P2 (h) (Homo sapiens, UniProt O95136).
T19 construct: gene S1PR2

A further assay has as its target T20, S1P5 (h) (Homo sapiens, UniProt Q9H228).
T20 construct: gene S1PR5

The target of another assay is T21, TP (TXA2/PGH2) (h) (Homo sapiens, UniProt P21731).
T21 construct: gene TBXA2R
T21 sequence (P21731 whole entry): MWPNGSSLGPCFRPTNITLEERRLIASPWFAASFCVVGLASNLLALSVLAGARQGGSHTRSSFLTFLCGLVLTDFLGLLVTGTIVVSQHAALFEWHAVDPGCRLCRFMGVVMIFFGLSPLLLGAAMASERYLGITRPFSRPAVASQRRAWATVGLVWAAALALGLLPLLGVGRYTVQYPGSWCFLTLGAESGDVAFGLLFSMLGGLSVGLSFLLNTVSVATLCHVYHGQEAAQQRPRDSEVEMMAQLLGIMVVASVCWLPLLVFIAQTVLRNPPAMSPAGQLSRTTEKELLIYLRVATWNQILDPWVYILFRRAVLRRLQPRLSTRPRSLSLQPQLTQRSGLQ

For another assay, the target named is T22, motilin (h) (Homo sapiens, UniProt O43193).
T22 construct: gene MLNR

Another assay has as its target T23, δ (DOP) (h) (Homo sapiens, UniProt P41143).
T23 construct: gene OPRD1

A word on the inhibition: it is the change of the read-out against control, counted positive when it falls.

T14 sequence (P41146 whole entry): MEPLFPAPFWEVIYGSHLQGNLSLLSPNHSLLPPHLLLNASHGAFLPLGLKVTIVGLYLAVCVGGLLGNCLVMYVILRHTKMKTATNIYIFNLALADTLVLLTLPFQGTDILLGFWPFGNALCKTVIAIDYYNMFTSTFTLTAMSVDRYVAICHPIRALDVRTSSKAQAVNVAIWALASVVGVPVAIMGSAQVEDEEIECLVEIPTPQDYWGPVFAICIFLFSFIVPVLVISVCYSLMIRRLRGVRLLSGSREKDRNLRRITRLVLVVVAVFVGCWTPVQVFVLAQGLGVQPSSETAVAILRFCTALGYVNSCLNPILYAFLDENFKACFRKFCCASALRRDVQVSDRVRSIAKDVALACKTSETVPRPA
T11 sequence (P25103 whole entry): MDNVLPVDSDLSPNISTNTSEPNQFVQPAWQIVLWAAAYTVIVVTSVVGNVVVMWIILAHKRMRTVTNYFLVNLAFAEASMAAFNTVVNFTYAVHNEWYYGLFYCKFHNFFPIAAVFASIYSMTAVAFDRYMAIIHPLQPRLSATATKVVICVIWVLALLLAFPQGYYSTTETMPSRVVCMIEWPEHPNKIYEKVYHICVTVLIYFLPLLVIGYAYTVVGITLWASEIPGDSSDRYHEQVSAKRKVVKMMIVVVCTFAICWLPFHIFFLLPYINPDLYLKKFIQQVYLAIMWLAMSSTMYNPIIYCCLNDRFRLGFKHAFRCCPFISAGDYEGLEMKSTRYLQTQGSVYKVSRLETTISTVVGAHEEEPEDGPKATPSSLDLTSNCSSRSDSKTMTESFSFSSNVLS
T13 sequence (Q9GZQ4 whole entry): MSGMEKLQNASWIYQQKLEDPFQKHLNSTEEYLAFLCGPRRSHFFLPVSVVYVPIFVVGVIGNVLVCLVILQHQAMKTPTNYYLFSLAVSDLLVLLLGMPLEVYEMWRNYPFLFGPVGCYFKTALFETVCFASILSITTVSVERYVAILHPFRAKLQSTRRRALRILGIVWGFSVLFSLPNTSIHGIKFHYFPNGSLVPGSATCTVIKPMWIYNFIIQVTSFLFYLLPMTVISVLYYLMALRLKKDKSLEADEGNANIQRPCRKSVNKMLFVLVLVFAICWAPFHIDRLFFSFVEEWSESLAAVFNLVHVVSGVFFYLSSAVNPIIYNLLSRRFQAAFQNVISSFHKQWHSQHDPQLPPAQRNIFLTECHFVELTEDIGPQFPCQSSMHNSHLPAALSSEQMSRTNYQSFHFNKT
T17 sequence (P55085 whole entry): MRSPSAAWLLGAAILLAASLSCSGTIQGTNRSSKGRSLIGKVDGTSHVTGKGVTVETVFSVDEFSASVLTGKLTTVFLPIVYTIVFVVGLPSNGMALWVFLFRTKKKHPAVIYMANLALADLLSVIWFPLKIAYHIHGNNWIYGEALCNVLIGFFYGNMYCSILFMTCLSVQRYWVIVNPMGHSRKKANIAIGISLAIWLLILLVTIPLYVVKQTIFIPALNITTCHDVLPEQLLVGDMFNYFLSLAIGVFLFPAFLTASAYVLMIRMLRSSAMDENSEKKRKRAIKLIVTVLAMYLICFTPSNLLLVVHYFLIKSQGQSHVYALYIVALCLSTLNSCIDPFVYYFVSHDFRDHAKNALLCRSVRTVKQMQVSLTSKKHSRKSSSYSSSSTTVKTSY
T6 sequence (P08912 whole entry): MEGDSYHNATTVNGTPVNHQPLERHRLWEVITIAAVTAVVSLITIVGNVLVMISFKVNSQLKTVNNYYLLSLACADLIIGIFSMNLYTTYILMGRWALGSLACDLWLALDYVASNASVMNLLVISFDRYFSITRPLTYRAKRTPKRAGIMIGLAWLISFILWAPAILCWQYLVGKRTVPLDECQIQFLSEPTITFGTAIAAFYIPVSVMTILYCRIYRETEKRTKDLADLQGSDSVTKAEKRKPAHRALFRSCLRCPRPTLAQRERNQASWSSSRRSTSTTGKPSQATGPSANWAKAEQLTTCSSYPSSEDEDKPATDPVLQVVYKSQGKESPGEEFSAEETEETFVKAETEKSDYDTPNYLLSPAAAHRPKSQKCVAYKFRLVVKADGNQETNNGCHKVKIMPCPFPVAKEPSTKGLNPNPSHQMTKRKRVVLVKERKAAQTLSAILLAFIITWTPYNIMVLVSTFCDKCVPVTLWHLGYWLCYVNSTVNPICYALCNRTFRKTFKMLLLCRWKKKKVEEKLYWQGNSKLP

With `[O-][S@@+](Cc1cncs1)C(c1ccccc1)c1ccccc1` [S-CE-123, (S)-5-((Benzhydrylsulfinyl)Methyl)Thiazole], the inhibition at 2.8 µM is 0.7% on EP2 (h); -30.8% on EP3 (h); 6.7% on FP (h); 4.4% at LPA1(h); -8.5% on M4 (h); -5.9% at M5 (h). The inhibition at 2.8 µM at MC2 (h) is 3.1%; on MC3 (h) it was -7.8%; at MRGX1 / MRGPRX1 (h), 4.9%; on MT1 (ML1A) (h), 7.6%; at MT2 (ML1B) (h), 6.2%; on NK1 (h) it was -5.3%. The inhibition at 2.8 µM on NK2 (h) is -0.8%; at NMU2 (h), -17.7%; at NOP (h) (ORL1), 18.4%; on NTS2 (NT2) (h), 22.9%; on P2Y1 (h), -6.7%; on PAR2 (h), -19.4%. The inhibition at 2.8 µM on PK1 (h) was 2.5%; on S1P2 (h), -5.2%; at S1P5 (h), 3.7%; on TP (TXA2/PGH2) (h), 2.5%; on motilin (h), -5.2%; at δ (DOP) (h), -2.8%.
